In ChEMBL document CHEMBL3603805, “Novel metal chelating molecules with anticancer activity. Striking effect of the imidazole substitution of the histidine-pyridine-histidine system” (Bioorg Med Chem, 2015):
The source made the active and inactive calls. The calls are words filed in the database; no cut-off is given here.

Tests used:
U-251 = assay: Cytotoxicity against human U251 cells at 10 uM after 24 hrs by MTT assay; assay type: functional, cell-based
Escherichia coli = assay: Induction of DNA cleavage in Escherichia coli supercoiled pUC19 DNA assessed as formation of nicked form II DNA using FeSO4 at 30 uM after 1.5 hrs by agarose-gel electrophoresis
ASPC1 = assay: Cytotoxicity against human AsPC1 cells at 10 uM after 24 hrs by MTT assay; assay type: functional, cell-based
U-87MG ATCC = assay: Cytotoxicity against human U87 cells at 10 uM after 24 hrs by MTT assay; assay type: functional, cell-based
[1] = Stability of the compound under physiological condition; assay type: physicochemical

| Activity (Escherichia coli) | Stability [1] | Compound | Activity (U-251) | Activity (ASPC1) | Activity (U-87MG ATCC) |
| --- | --- | --- | --- | --- | --- |
| Active | – | COC(=O)[C@H](Cc1c[nH]cn1)NCc1cc(N(C)C)cc(CN[C@@H](Cc2cn(C)cn2)C(=O)OC)n1 | inactive | inactive | inactive |
| Active | – | COC(=O)[C@H](Cc1cn(C)cn1)NCc1cc(N(C)C)cc(CN[C@@H](Cc2cn(C)cn2)C(=O)OC)n1 | inactive | inactive | inactive |
| Active | – | COC(=O)[C@H](Cc1c[nH]cn1)NCc1cc(N(C)C)cc(CN[C@@H](Cc2c[nH]cn2)C(=O)OC)n1 | inactive | inactive | inactive |

Second part, the compound before the results:

| Compound | Activity (Escherichia coli) | Stability [1] | Activity (U-251) | Activity (ASPC1) | Activity (U-87MG ATCC) |
| --- | --- | --- | --- | --- | --- |
| COC(=O)[C@H](Cc1cn(C(c2ccccc2)(c2ccccc2)c2ccccc2)cn1)NCc1cc(N(C)C)cc(CN[C@@H](Cc2cn(C(c3ccccc3)(c3ccccc3)c3ccccc3)cn2)C(=O)OC)n1 | Active | Stable | Active | Active | Active |
| COC(=O)[C@H](Cc1cn(Cc2ccccc2)cn1)NCc1cc(N(C)C)cc(CN[C@@H](Cc2cn(Cc3ccccc3)cn2)C(=O)OC)n1 | Active | – | inactive | inactive | inactive |
| COC(=O)[C@H](Cc1c[nH]cn1)NCc1cc(N(C)C)cc(CN[C@@H](Cc2cn(C(c3ccccc3)(c3ccccc3)c3ccccc3)cn2)C(=O)OC)n1 | Active | Stable | Active | Active | Active |
